From the supplement of paper PMC10307832

Assays:
Test in all cases: relative viability (nuclei count vs DMSO), 5 days (fraction); higher = more cells survive
CAP-232 + Dasatinib = compound: C[C@H]([C@@H](C(=O)N)NC(=O)[C@@H]1CSSC[C@@H](C(=O)N[C@H](C(=O)N[C@@H](C(=O)N[C@H](C(=O)N1)CCCCN)CC2=CNC3=CC=CC=C32)CC4=CC=C(C=C4)O)NC(=O)[C@@H](CC5=CC=CC=C5)N)O [CAP-232] + Cc1nc(Nc2ncc(C(=O)Nc3c(C)cccc3Cl)s2)cc(N2CCN(CCO)CC2)n1 [Dasatinib] (partner 0.075 µM)
Outline: (§1)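 Each reported value is a median over duplicate plates. It expresses relative viability: treated-well nuclei count divided by vehicle-well nuclei count. Lung cancer cell lines in 1536-well plates were dosed by pin tool a day after seeding, alone with one drug or with a fixed anchor-drug dose plus five library-drug doses (not always all listed) in √10 steps, and nuclei were counted after 5 days.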

CAP-232 + Vorinostat = compound: C[C@H]([C@@H](C(=O)N)NC(=O)[C@@H]1CSSC[C@@H](C(=O)N[C@H](C(=O)N[C@@H](C(=O)N[C@H](C(=O)N1)CCCCN)CC2=CNC3=CC=CC=C32)CC4=CC=C(C=C4)O)NC(=O)[C@@H](CC5=CC=CC=C5)N)O [CAP-232] + O=C(CCCCCCC(=O)Nc1ccccc1)NO [Vorinostat] (partner 1 µM)
Outline: as §1

CAP-232 + Olaparib = compound: C[C@H]([C@@H](C(=O)N)NC(=O)[C@@H]1CSSC[C@@H](C(=O)N[C@H](C(=O)N[C@@H](C(=O)N[C@H](C(=O)N1)CCCCN)CC2=CNC3=CC=CC=C32)CC4=CC=C(C=C4)O)NC(=O)[C@@H](CC5=CC=CC=C5)N)O [CAP-232] + O=C(c1cc(Cc2n[nH]c(=O)c3ccccc23)ccc1F)N1CCN(C(=O)C2CC2)CC1 [Olaparib] (partner 8 µM)
Outline: as §1

CAP-232 + Tozasertib = compound: C[C@H]([C@@H](C(=O)N)NC(=O)[C@@H]1CSSC[C@@H](C(=O)N[C@H](C(=O)N[C@@H](C(=O)N[C@H](C(=O)N1)CCCCN)CC2=CNC3=CC=CC=C32)CC4=CC=C(C=C4)O)NC(=O)[C@@H](CC5=CC=CC=C5)N)O [CAP-232] + Cc1cc(Nc2cc(N3CCN(C)CC3)nc(Sc3ccc(NC(=O)C4CC4)cc3)n2)n[nH]1 [Tozasertib] (partner 0.1 µM)
Outline: as §1

CAP-232 + Linsitinib = compound: C[C@H]([C@@H](C(=O)N)NC(=O)[C@@H]1CSSC[C@@H](C(=O)N[C@H](C(=O)N[C@@H](C(=O)N[C@H](C(=O)N1)CCCCN)CC2=CNC3=CC=CC=C32)CC4=CC=C(C=C4)O)NC(=O)[C@@H](CC5=CC=CC=C5)N)O [CAP-232] + C[C@]1(O)C[C@@H](c2nc(-c3ccc4ccc(-c5ccccc5)nc4c3)c3c(N)nccn32)C1 [Linsitinib] (partner 1 µM)
Outline: as §1

Cell Line | relative viability (CAP-232 + Dasatinib; first compound 0.4 µM) | relative viability (CAP-232 + Dasatinib; first compound 1.265 µM) | relative viability (CAP-232 + Dasatinib; first compound 4 µM) | relative viability (CAP-232 + Dasatinib; first compound 12.65 µM) | relative viability (CAP-232 + Vorinostat; first compound 0.4 µM) | relative viability (CAP-232 + Vorinostat; first compound 1.265 µM) | relative viability (CAP-232 + Vorinostat; first compound 4 µM) | relative viability (CAP-232 + Vorinostat; first compound 12.65 µM) | relative viability (CAP-232 + Olaparib; first compound 0.4 µM) | relative viability (CAP-232 + Olaparib; first compound 1.265 µM) | relative viability (CAP-232 + Olaparib; first compound 4 µM) | relative viability (CAP-232 + Olaparib; first compound 12.65 µM) | relative viability (CAP-232 + Tozasertib; first compound 0.4 µM) | relative viability (CAP-232 + Tozasertib; first compound 1.265 µM) | relative viability (CAP-232 + Tozasertib; first compound 4 µM) | relative viability (CAP-232 + Tozasertib; first compound 12.65 µM) | relative viability (CAP-232 + Linsitinib; first compound 0.4 µM) | relative viability (CAP-232 + Linsitinib; first compound 1.265 µM) | relative viability (CAP-232 + Linsitinib; first compound 4 µM) | relative viability (CAP-232 + Linsitinib; first compound 12.65 µM)
LOU-NH91 | 0.593 | 0.548 | 0.618 | 0.437 | 1.02 | 0.882 | 0.931 | 0.415 | 0.945 | 0.873 | 0.907 | 0.574 | 0.574 | 0.68 | 0.618 | 0.511 | 0.923 | 1.06 | 0.865 | 0.719
LU99A | 0.769 | 0.493 | 0.675 | 0.492 | 0.533 | 0.492 | 0.589 | 0.533 | 0.233 | 0.232 | 0.332 | 0.306 | 0.253 | 0.263 | 0.296 | 0.287 | 0.52 | 0.504 | 0.506 | 0.533
LXF-289 | 0.224 | 0.194 | 0.238 | 0.21 | 0.89 | 0.785 | 0.772 | 0.774 | 1.09 | 1.07 | 1.12 | 1.08 | 0.206 | 0.176 | 0.213 | 0.149 | 1.05 | 0.952 | 0.992 | 0.983
NCI-H23 | 0.714 | 0.609 | 0.891 | 0.844 | 0.578 | 0.534 | 0.558 | 0.54 | 0.34 | 0.301 | 0.306 | 0.27 | 0.416 | 0.386 | 0.384 | 0.309 | 0.5 | 0.624 | 0.587 | 0.543
NCI-H322M | 0.275 | 0.237 | 0.256 | 0.34 | 0.91 | 0.894 | 0.932 | 1.11 | 0.939 | 0.746 | 0.745 | 0.697 | 0.448 | 0.5 | 0.515 | 0.498 | 1.14 | 0.916 | 0.941 | 0.959
NCI-H358 | 0.183 | 0.151 | 0.124 | 0.179 | 0.755 | 0.709 | 0.71 | 0.375 | 0.454 | 0.677 | 0.783 | 0.465 | 0.102 | 0.115 | 0.089 | 0.0797 | 0.548 | 0.686 | 0.796 | 0.584
NCI-H441 | 0.653 | 0.857 | 0.7 | 0.543 | 0.879 | 0.824 | 0.936 | 0.77 | 0.482 | 0.551 | 0.595 | 0.429 | 0.628 | 0.58 | 0.571 | 0.653 | 0.439 | 0.64 | 0.699 | 0.5
